ChEMBL document CHEMBL1201862, “PubChem BioAssay data set” (2004)
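Following 48 hours of exposure in 96-well plates, responses at five concentrations were used to interpolate endpoints linearly. GI50 marks 50% less growth.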 Active and inactive are the calls of the source. Rule as the data show it: active = GI50 up to about 1.1 µM and inactive = higher.

Columns and labels:
Assay in all cases: DTP human tumour cell line panel, 48 h
SF-295 = system: SF-295
HCT-15 = system: HCT-15
Malme-3M = system: Malme-3M
K562 = system: K562
SK-MEL-28 = system: SK-MEL-28
HT-29 = system: HT-29
HL-60 = system: HL-60
NCI-H522 = system: NCI-H522
MDA-N = system: MDA-N
NCI-H460 = system: NCI-H460
NCI-H226 = system: NCI-H226
MDA-MB-435 = system: MDA-MB-435
OVCAR-3 = system: OVCAR-3
UACC-62 = system: UACC-62
786-0 = system: 786-0
NCI-H23 = system: NCI-H23
A549 = system: A549
A498 = system: A498
OVCAR-8 = system: OVCAR-8
PC-3 = system: PC-3

| Structure (SMILES) | GI50 (SF-295) | GI50 (HCT-15) [µM] | GI50 (Malme-3M) | GI50 (K562) | GI50 (SK-MEL-28) | GI50 (HT-29) | GI50 (HL-60) | GI50 (NCI-H522) | GI50 (MDA-N) | GI50 (NCI-H460) | GI50 (NCI-H226) | GI50 (MDA-MB-435) | GI50 (OVCAR-3) | GI50 (UACC-62) | GI50 (786-0) | GI50 (NCI-H23) | GI50 (A549) | GI50 (A498) | GI50 (OVCAR-8) | GI50 (PC-3) |
| --- | --- | --- | --- | --- | --- | --- | --- | --- | --- | --- | --- | --- | --- | --- | --- | --- | --- | --- | --- | --- |
| COc1cc(C(=O)N(Cc2cccnc2)C(=S)N(Cc2cccnc2)C(=O)c2cc(OC)c(OC)c(OC)c2)cc(OC)c1OC | > 100 µM (inactive) | 37.7 | 89.7 µM (inactive) | 52 µM (inactive) | > 100 µM (inactive) | 35.4 µM (inactive) | 37.2 µM (inactive) | 23.9 µM (inactive) | 36 µM (inactive) | 94 µM (inactive) | > 100 µM (inactive) | 31 µM (inactive) | 34.4 µM (inactive) | 31.6 µM (inactive) | 36.2 µM (inactive) | 49.2 µM (inactive) | > 100 µM (inactive) | 23.2 µM (inactive) | 28.7 µM (inactive) | – |
| c1ccc(CSc2nc(N3CCOCC3)c3cn[nH]c3n2)cc1 | 24.4 µM (inactive) | 25.8 | 14.1 µM (inactive) | 16.2 µM (inactive) | 19.1 µM (inactive) | 30.8 µM (inactive) | 36.6 µM (inactive) | 15.6 µM (inactive) | – | 17.8 µM (inactive) | 17 µM (inactive) | 17.5 µM (inactive) | 27.7 µM (inactive) | 11.4 µM (inactive) | 37.7 µM (inactive) | 49.2 µM (inactive) | 22.8 µM (inactive) | 5.71 µM (inactive) | 18.4 µM (inactive) | 13.4 µM (inactive) |
| N#Cc1c(Cl)cccc1Oc1ccc(S(=O)(=O)/N=C(\NN)Nc2ccc(Cl)cc2)cc1 | 24.2 µM (inactive) | 34.4 | – | 34.8 µM (inactive) | 31.8 µM (inactive) | 30.3 µM (inactive) | 21.5 µM (inactive) | – | 25.5 µM (inactive) | 19.2 µM (inactive) | 17.4 µM (inactive) | – | 19.7 µM (inactive) | 19.1 µM (inactive) | 23.8 µM (inactive) | 24.3 µM (inactive) | 31.9 µM (inactive) | 32.4 µM (inactive) | 31.2 µM (inactive) | 23.6 µM (inactive) |
| C=CCc1cc(-c2cc(CC=C)c(O)c(CNC)c2)cc(CNC)c1O | 16.9 µM (inactive) | 16.6 | 18.7 µM (inactive) | 10.4 µM (inactive) | 19.5 µM (inactive) | 15.3 µM (inactive) | 14.9 µM (inactive) | 14.8 µM (inactive) | – | 16.3 µM (inactive) | 16.9 µM (inactive) | – | 14.7 µM (inactive) | 18.1 µM (inactive) | 15.5 µM (inactive) | 15.8 µM (inactive) | 17.8 µM (inactive) | 20.3 µM (inactive) | 17.6 µM (inactive) | – |
| CCOC(=O)c1c(N)sc2c1C(C)(C(=O)OCC)CC2 (stereo not drawn) | – | > 100 | > 100 µM (inactive) | > 100 µM (inactive) | > 100 µM (inactive) | > 100 µM (inactive) | 96.8 µM (inactive) | – | > 100 µM (inactive) | 69.5 µM (inactive) | > 100 µM (inactive) | – | – | > 100 µM (inactive) | > 100 µM (inactive) | > 100 µM (inactive) | 63.1 µM (inactive) | 18.2 µM (inactive) | > 100 µM (inactive) | > 100 µM (inactive) |
| CC(=O)O[C@@H]1CC[C@@]2(C)C(CC[C@H]3[C@@H]4CC[C@H]([C@H](C)CCc5nc6cc(C)ccc6[nH]5)[C@@]4(C)CC[C@@H]32)C1 (stereo partly drawn) | 12 µM (inactive) | 46.6 | – | 12.6 µM (inactive) | > 100 µM (inactive) | 12.4 µM (inactive) | – | 16.7 µM (inactive) | – | – | 9.38 µM (inactive) | > 100 µM (inactive) | 20.9 µM (inactive) | 11.5 µM (inactive) | 8.69 µM (inactive) | 17.3 µM (inactive) | 43.4 µM (inactive) | 92.7 µM (inactive) | 11 µM (inactive) | 9.53 µM (inactive) |
| CC(=O)Oc1ccccc1C(=O)C1c2cccc(O)c2C(=O)c2c(O)cccc21 | 0.682 µM (active) | 1.08 | 1.95 µM (inactive) | 0.366 µM (active) | 1.64 µM (inactive) | 2.59 µM (inactive) | 0.222 µM (active) | 0.479 µM (active) | – | 0.433 µM (active) | 1.63 µM (inactive) | – | 0.593 µM (active) | 0.794 µM (active) | 1.67 µM (inactive) | 1.09 µM (active) | 0.776 µM (active) | 1.8 µM (inactive) | 1.23 µM (inactive) | – |
| O=C(O)c1cccc(Nc2c(C(=O)O)cccc2[N+](=O)[O-])c1 | > 100 µM (inactive) | > 100 | 38.5 µM (inactive) | > 100 µM (inactive) | – | > 100 µM (inactive) | > 100 µM (inactive) | > 100 µM (inactive) | > 100 µM (inactive) | > 100 µM (inactive) | – | – | > 100 µM (inactive) | > 100 µM (inactive) | > 100 µM (inactive) | > 100 µM (inactive) | > 100 µM (inactive) | > 100 µM (inactive) | > 100 µM (inactive) | > 100 µM (inactive) |
| FC1C2=C(SC1(F)F)C1CCC2C1 (stereo not drawn) | > 100 µM (inactive) | > 100 | > 100 µM (inactive) | > 100 µM (inactive) | – | > 100 µM (inactive) | > 100 µM (inactive) | > 100 µM (inactive) | – | > 100 µM (inactive) | > 100 µM (inactive) | > 100 µM (inactive) | > 100 µM (inactive) | > 100 µM (inactive) | > 100 µM (inactive) | > 100 µM (inactive) | > 100 µM (inactive) | – | > 100 µM (inactive) | > 100 µM (inactive) |
| CC(C)OC1=C(CC2(C)OCCO2)C(=O)C12OCCO2 | > 100 µM (inactive) | > 100 | – | – | > 100 µM (inactive) | > 100 µM (inactive) | > 100 µM (inactive) | 40.4 µM (inactive) | – | > 100 µM (inactive) | > 100 µM (inactive) | > 100 µM (inactive) | > 100 µM (inactive) | > 100 µM (inactive) | > 100 µM (inactive) | 42 µM (inactive) | > 100 µM (inactive) | > 100 µM (inactive) | > 100 µM (inactive) | > 100 µM (inactive) |
| C[n+]1cccc2ccc(OC(=O)c3ccccc3)cc21 | > 100 µM (inactive) | > 100 | > 100 µM (inactive) | > 100 µM (inactive) | – | > 100 µM (inactive) | > 10 µM (inactive) | > 100 µM (inactive) | > 100 µM (inactive) | – | > 100 µM (inactive) | > 100 µM (inactive) | > 100 µM (inactive) | > 100 µM (inactive) | > 100 µM (inactive) | > 100 µM (inactive) | > 100 µM (inactive) | > 100 µM (inactive) | > 100 µM (inactive) | – |
| CS(=O)(=O)OCCN(CCOS(C)(=O)=O)c1ccc(/C=N/c2cccc(Cl)c2)cc1 | 1.46 µM (inactive) | 1.02 | 12.4 µM (inactive) | 23.5 µM (inactive) | 10.4 µM (inactive) | 2.69 µM (inactive) | 2.45 µM (inactive) | 0.724 µM (active) | – | 0.269 µM (active) | 2.06 µM (inactive) | 12.2 µM (inactive) | 12.1 µM (inactive) | 1.5 µM (inactive) | 0.813 µM (active) | 1.66 µM (inactive) | 2.64 µM (inactive) | 5.38 µM (inactive) | 10 µM (inactive) | 24.5 µM (inactive) |
| COc1cc(/C=C2\C(=O)N(c3ccccc3)C(c3ccccc3)S2(=O)=O)cc(OC)c1OC (stereo not drawn) | > 100 µM (inactive) | 37.9 | 53.1 µM (inactive) | 27 µM (inactive) | 51.6 µM (inactive) | 19.5 µM (inactive) | 7.36 µM (inactive) | 29.7 µM (inactive) | 16.4 µM (inactive) | 54 µM (inactive) | 46.8 µM (inactive) | 27 µM (inactive) | 36 µM (inactive) | 30.1 µM (inactive) | 69.5 µM (inactive) | 39.1 µM (inactive) | 43.8 µM (inactive) | > 100 µM (inactive) | 21.3 µM (inactive) | – |
| C/C(=N/Nc1ccc([N+](=O)[O-])cc1[N+](=O)[O-])C(CC(C(=O)Nc1ccccc1C)/C(C)=N\Nc1ccc([N+](=O)[O-])cc1[N+](=O)[O-])C(=O)Nc1ccccc1C (stereo not drawn) | 16.1 µM (inactive) | 32.9 | 22.5 µM (inactive) | > 100 µM (inactive) | 21.9 µM (inactive) | 14.8 µM (inactive) | 1.19 µM (inactive) | 0.424 µM (active) | – | 12.5 µM (inactive) | 6.65 µM (inactive) | – | 7.06 µM (inactive) | 19.6 µM (inactive) | 17.9 µM (inactive) | 11.3 µM (inactive) | 19.7 µM (inactive) | 14.9 µM (inactive) | 6 µM (inactive) | – |
| NN/C(=N\S(=O)(=O)c1cc(Cl)c(Oc2ccc([N+](=O)[O-])cc2Cl)c(Cl)c1)Nc1ccc(Cl)cc1 | 20.4 µM (inactive) | 19.2 | 21.8 µM (inactive) | 27 µM (inactive) | 21.5 µM (inactive) | 19.1 µM (inactive) | – | – | 17.8 µM (inactive) | 15.8 µM (inactive) | 15.9 µM (inactive) | – | 15.9 µM (inactive) | 15.5 µM (inactive) | 18.2 µM (inactive) | 16.5 µM (inactive) | 17.9 µM (inactive) | 22.8 µM (inactive) | 24.2 µM (inactive) | 26.5 µM (inactive) |
| NS(=O)(=O)c1nnc(NC(=O)c2ccccc2)s1 | > 100 µM (inactive) | > 100 | > 100 µM (inactive) | > 100 µM (inactive) | > 100 µM (inactive) | – | – | > 100 µM (inactive) | > 100 µM (inactive) | > 100 µM (inactive) | > 100 µM (inactive) | > 100 µM (inactive) | > 100 µM (inactive) | > 100 µM (inactive) | > 100 µM (inactive) | > 100 µM (inactive) | > 100 µM (inactive) | > 100 µM (inactive) | > 100 µM (inactive) | – |
